The first test has as its target T1, full-length hepatitis C viral protein NS3•4A (Hepatitis C virus genotype 1a, UniProt P27958).
T1 construct: hexa-histidine (N); made in house; host or cells: Sf9 insect cells (baculovirus, pVL1392)
The test can be described thus: biochemical. Further details: species or system HCV sub-type strain 1a. To be noted: Enzyme Assay 2 (HCV NS3 Peptide Cleavage Assay) activity, apparent Ki class.
For `CCC[C@H](NC(=O)[C@@H]1C[C@]2(CC(c3cc(Cl)c(OC)cc3C)=NO2)CN1C(=O)[C@@H](NC(=O)OC(C)(C)C)C(C)(C)C)C(=O)C(N)=O` [Compound 626], the Ki was less than 100 nM.

Consider `CCC[C@H](NC(=O)[C@@H]1C[C@]2(CC(c3ccc(F)c(Cl)c3)=NO2)CN1C(=O)[C@@H](NC(=O)CC1CCCCCC1)C(C)(C)C)C(=O)C(=O)NC1CC1` [Compound 611], for which the Ki was less than 100 nM.

With `CNC(=O)C(=O)[C@H](CC1CC1)NC(=O)[C@@H]1C[C@]2(CC(c3cc(Cl)c(OC)cc3OC)=NO2)CN1C(=O)[C@@H](NC(=O)CC1CCCCC1)C(C)(C)C` [Compound 657], the Ki is less than 100 nM.

`CCC[C@H](NC(=O)[C@@H]1C[C@]2(CC(c3cccc([N+](=O)[O-])c3)=NO2)CN1C(=O)[C@@H](NC(=O)CC1CCCCC1)C(C)(C)C)C(=O)C(=O)NC1CC1` [Compound 89]: the Ki lay within 100 to 500 nM.

On to `CNC(=O)C(=O)[C@H](CC1CC1)NC(=O)[C@@H]1C[C@]2(CC(c3cccc(Cl)c3)=NO2)CN1C(=O)[C@@H](NC(=O)CC(C)(C)OC)C(C)(C)C` [Compound 773], for which the Ki fell in the range of 100 to 500 nM.

In the case of `CCC[C@H](NC(=O)[C@@H]1C[C@]2(CC(c3cc(Cl)c(OC)cc3OC)=NO2)CN1C(=O)[C@@H](NC(=O)OC(C)(C)C)C(C)(C)C)C(=O)C(=O)NC1CC1` [Compound 131], the Ki was less than 100 nM.

As to `COc1c(C)cc(C2=NO[C@]3(C2)C[C@@H](C(=O)N[C@@H](CC2CC2)C(=O)C(=O)NC2CC2)N(C(=O)[C@@H](NC(=O)CC2CCCCC2)C(C)(C)C)C3)cc1C` [Compound 764], the Ki lay in the range of 100 to 500 nM.

Consider `CCC[C@H](NC(=O)[C@@H]1C[C@]2(CC(c3cc(Cl)c(OC)cc3OC)=NO2)CN1C(=O)[C@@H](NC(=O)CC(C)(C)C)C(C)(C)C)C(=O)C(=O)NC1CC1` [Compound 297], for which the Ki is less than 100 nM.

Consider `CCC[C@H](NC(=O)[C@@H]1C[C@]2(CC(c3cc(C)c(OC)c(Cl)c3)=NO2)CN1C(=O)[C@@H](NC(=O)CC1CCCCC1)C(C)(C)C)C(=O)C(N)=O` [Compound 640], for which the Ki was less than 100 nM.

Consider `CC(C)(C)[C@H](NC(=O)[C@H]1C[C@@H]1c1ccccc1)C(=O)N1C[C@@]2(CC(c3cccc(Cl)c3)=NO2)C[C@H]1C(=O)N[C@@H](CC1CC1)C(=O)C(N)=O` [Compound 699], for which the Ki is less than 100 nM.

On to `CCC[C@H](NC(=O)[C@@H]1C[C@]2(CC(c3cccc4cccnc34)=NO2)CN1C(=O)[C@@H](NC(=O)CC1CCCCCC1)C(C)(C)C)C(=O)C(=O)NC1CC1` [Compound 595], for which the Ki is less than 100 nM.

For `CCC[C@H](NC(=O)[C@@H]1C[C@]2(CC(c3cc(Cl)ccc3OC)=NO2)CN1C(=O)[C@@H](NC(=O)CC1CCCCC1)C(C)(C)C)C(=O)C(=O)NC` [Compound 632], the Ki was less than 100 nM.

For `CCC[C@H](NC(=O)[C@@H]1C[C@]2(CC(c3ccc(F)c(Cl)c3)=NO2)CN1C(=O)[C@@H](NC(=O)CC(C)(C)C)C(C)(C)C)C(=O)C(N)=O` [Compound 625], the Ki was less than 100 nM.

In the case of `CCC[C@H](NC(=O)[C@@H]1C[C@]2(CC(c3cc(Cl)c(OC)cc3OC)=NO2)CN1C(=O)[C@@H](NC(=O)CC1CCCCCC1)C(C)(C)C)C(=O)C(N)=O` [Compound 656], the Ki lay in the range of 100 to 500 nM.

In the case of `COc1cc(OC)c(C2=NO[C@]3(C2)CC(C(=O)N[C@@H](CC2CC2)C(=O)C(N)=O)N(C(=O)[C@@H](NC(=O)CC2CCCCCC2)C(C)(C)C)C3)cc1Cl` (some centres unmarked) [Compound 59], the Ki is less than 100 nM.

On to `CCC[C@H](NC(=O)[C@@H]1C[C@]2(CC(c3nccc4ccccc34)=NO2)CN1C(=O)[C@@H](NC(=O)OC1CCCC1)C(C)(C)C)C(=O)C(=O)NC1CC1` [Compound 661], for which the Ki is less than 100 nM.

In the case of `CCC[C@H](NC(=O)[C@@H]1C[C@]2(CC(c3cccc(Cl)c3)=NO2)CN1C(=O)[C@@H](NC(=O)CC1CC2CCC1C2)C(C)(C)C)C(=O)C(N)=O` (some centres unmarked) [Compound 779], the Ki is less than 100 nM.

In the case of `CCC[C@H](NC(=O)[C@@H]1C[C@]2(CC(c3cc(Cl)ccc3OC)=NO2)CN1C(=O)[C@@H](NC(=O)CC1CCCCCC1)C(C)(C)C)C(=O)C(=O)NC1CC1` [Compound 649], the Ki lay within 100 to 500 nM.

As for `CCC[C@H](NC(=O)[C@@H]1C[C@]2(CC(c3cc(C)c(OC)cc3C)=NO2)CN1C(=O)[C@@H](NC(=O)CC1CCCCC1)C(C)(C)C)C(=O)C(=O)NC1CC1` [Compound 615], the Ki was in the range of 100 to 500 nM.

On to `CNC(=O)C(=O)[C@H](CC1CC1)NC(=O)C1C[C@]2(CC(c3cccc(Cl)c3)=NO2)CN1C(=O)[C@@H](NC(=O)C1CCC1)C(C)(C)C` (some centres unmarked) [Compound 749], for which the Ki is less than 100 nM.

Regarding `CCC[C@H](NC(=O)[C@@H]1C[C@]2(CC(c3cc(Cl)cc(OC)c3Cl)=NO2)CN1C(=O)[C@@H](NC(=O)CC1CCCCC1)C(C)(C)C)C(=O)C(=O)NC1CC1` [Compound 38], the Ki is 100 to 500 nM.

Regarding `CCC[C@H](NC(=O)[C@@H]1C[C@]2(CC(c3cc(Cl)c(OC)cc3C)=NO2)CN1C(=O)[C@@H](NC(=O)OC1CCCC1)C(C)(C)C)C(=O)C(=O)NC` [Compound 650], the Ki fell in the range of 100 to 500 nM.

For `CCC[C@H](NC(=O)[C@@H]1C[C@]2(CC(c3ccc(F)c(Cl)c3)=NO2)CN1C(=O)[C@@H](NC(=O)CC1CCCCC1)C(C)(C)C)C(=O)C(N)=O` [Compound 621], the Ki was less than 100 nM.

Take `CCC[C@H](NC(=O)[C@@H]1C[C@]2(CC(c3cc(Cl)c4c(c3)OCCO4)=NO2)CN1C(=O)[C@@H](NC(=O)CC1CCCCC1)C(C)(C)C)C(=O)C(=O)NC` [Compound 674]: the Ki is less than 100 nM.

With `CCC[C@H](NC(=O)[C@@H]1C[C@]2(CC(c3cc(Cl)c4c(c3)CCCN4C)=NO2)CN1C(=O)[C@@H](NC(=O)OC(C)(C)C)C(C)(C)C)C(=O)C(=O)NC1CC1` [Compound 601], the Ki was less than 100 nM.

As for `CCC[C@H](NC(=O)[C@@H]1C[C@]2(CC(c3cccc(Cl)n3)=NO2)CN1C(=O)[C@@H](NC(=O)CC1CCCCC1)C(C)(C)C)C(=O)C(=O)NC1CC1` [Compound 786], the Ki was in the range of 100 to 500 nM.

As for `CCC[C@H](NC(=O)[C@@H]1C[C@]2(CC(c3cccc4cccnc34)=NO2)CN1C(=O)[C@@H](NC(=O)OC(C)(C)C)C(C)(C)C)C(=O)C(=O)NC` [Compound 644], the Ki was in the range of 100 to 500 nM.

On to `COc1c(C)cc(C2=NO[C@]3(C2)C[C@@H](C(=O)NC(CC2CC2)C(=O)C(N)=O)N(C(=O)[C@@H](NC(=O)OC2CCCC2)C(C)(C)C)C3)cc1C` (some centres unmarked) [Compound 769], for which the Ki was in the range of 100 to 500 nM.

The same test, now with this note: Enzyme Assay 2, HCV NS3 Peptide Cleavage Assay, apparent Ki.
Take `CCC[C@H](NC(=O)[C@@H]1C[C@]2(CC(N3Cc4ccccc4C3)=NO2)CN1C(=O)[C@@H](NC(=O)OC1CCCC1)C(C)(C)C)C(=O)C(=O)NC1CC1` [Compound 904]: the Ki is less than 100 nM.

For the compound `CCNC(=O)C(=O)[C@H](CC1CC1)NC(=O)[C@@H]1C[C@]2(CC(c3cc(Cl)c(OC)cc3OC)=NO2)CN1C(=O)[C@@H](NC(=O)C1CC1)C(C)(C)C` [Compound 896], the Ki is less than 100 nM.

Turning to `CCC[C@H](NC(=O)[C@@H]1C[C@]2(CC(c3cccc(Cl)c3)=NO2)CN1C(=O)[C@@H](NC(=O)[C@H]1C[C@@H]1C1CCCCC1)C(C)(C)C)C(=O)C(N)=O` [Compound 932], the Ki is less than 100 nM.

For the compound `CCC[C@H](NC(=O)[C@@H]1C[C@]2(CC(c3cc(Cl)c(OCC)cc3OC)=NO2)CN1C(=O)[C@@H](NC(=O)CC1CCCCC1)C(C)(C)C)C(=O)C(=O)NC1CC1` [Compound 818], the Ki was less than 100 nM.

Consider `CNC(=O)C(=O)[C@H](CC1CC1)NC(=O)[C@@H]1C[C@]2(CC(c3cccc(Cl)c3)=NO2)CN1C(=O)[C@@H](NC(=O)[C@@H]1C[C@H]1c1ccccc1OC)C(C)(C)C` [Compound 867], for which the Ki is less than 100 nM.

As for `CCC[C@H](NC(=O)[C@@H]1C[C@]2(CC(c3cccc(Cl)c3)=NO2)CN1C(=O)[C@@H](NC(=O)[C@H]1C[C@@H]1C1CCCCC1)C(C)(C)C)C(=O)C(=O)NC` [Compound 928], the Ki is 100 to 500 nM.

For `CCC[C@H](NC(=O)[C@@H]1C[C@]2(CC(c3cc(C)c(OCC)c(C)c3)=NO2)CN1C(=O)[C@@H](NC(=O)[C@@H]1C[C@H]1c1ccc(F)cc1)C(C)(C)C)C(=O)C(=O)NC` [Compound 995], the Ki was less than 100 nM.

Turning to `CCOc1cc(OC)c(C2=NO[C@]3(C2)C[C@@H](C(=O)N[C@@H](CC2CC2)C(=O)C(N)=O)N(C(=O)[C@@H](NC(=O)CC2CCCCC2)C(C)(C)C)C3)cc1Cl` [Compound 972], the Ki was less than 100 nM.

`CCNC(=O)C(=O)[C@H](CC1CC1)NC(=O)[C@@H]1C[C@]2(CC(c3cc(Cl)ccc3OC)=NO2)CN1C(=O)[C@@H](NC(=O)[C@@H]1C[C@H]1c1ccccc1)C(C)(C)C` [Compound 970]: the Ki is less than 100 nM.

Turning to `CCC[C@H](NC(=O)[C@@H]1C[C@]2(CC(c3cc(Cl)ccc3OC)=NO2)CN1C(=O)[C@@H](NC(=O)[C@@H]1C[C@H]1c1ccccc1)C(C)(C)C)C(=O)C(=O)NC1CC1` [Compound 968], the Ki is less than 100 nM.

As for `CNC(=O)C(=O)[C@H](CC1CC1)NC(=O)[C@@H]1C[C@]2(CC(c3cccc(Cl)c3)=NO2)CN1C(=O)[C@@H](NC(=O)OC1CCC1)C(C)(C)C` [Compound 851], the Ki was less than 100 nM.

`CCC[C@H](NC(=O)[C@@H]1C[C@]2(CC(c3cccc(Cl)c3)=NO2)CN1C(=O)[C@@H](NC(=O)C1(C#N)CC1)C(C)(C)C)C(=O)C(=O)NC1CC1` [Compound 823]: the Ki was less than 100 nM.

For `CCC[C@H](NC(=O)[C@@H]1C[C@]2(CC(c3cc(C)c(OCC)c(C)c3)=NO2)CN1C(=O)[C@@H](NC(=O)[C@@H]1C[C@H]1C1CCCCC1)C(C)(C)C)C(=O)C(=O)NC` [Compound 993], the Ki was less than 100 nM.

For the compound `CCNC(=O)C(=O)[C@H](CC1CC1)NC(=O)[C@@H]1C[C@]2(CC(c3cc(C)c(OC)c(C)c3)=NO2)CN1C(=O)[C@@H](NC(=O)[C@@H]1CC1c1ccccc1)C(C)(C)C` (some centres unmarked) [Compound 845], the Ki was less than 100 nM.

In the case of `CCNC(=O)C(=O)[C@H](CC1CC1)NC(=O)[C@@H]1C[C@]2(CC(c3cccc(Cl)c3)=NO2)CN1C(=O)[C@@H](NC(=O)CC1CCCCC1)C(C)(C)C` [Compound 836], the Ki is less than 100 nM.

For the compound `CCC[C@H](NC(=O)[C@@H]1C[C@]2(CC(c3cccc(Cl)c3)=NO2)CN1C(=O)[C@@H](NC(=O)[C@@H]1C[C@H]1c1c[nH]cn1)C(C)(C)C)C(=O)C(=O)NC1CC1` [Compound 918], the Ki lay within 100 to 500 nM.
